Source: the supplement of paper PMC10307832

Legend:
Assay in all cases: relative viability (nuclei count vs DMSO), 5 days (fraction); higher = more cells survive
[1] = compound: CC1(C)CNc2cc(NC(=O)c3cccnc3NCc3ccncc3)ccc21 [Motesanib] + CS(=O)(=O)CCNCc1ccc(-c2ccc3ncnc(Nc4ccc(OCc5cccc(F)c5)c(Cl)c4)c3c2)o1 [Lapatinib] (partner 2 µM)
Method in brief: (§1)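 Cells from lung cancer lines were seeded into 1536-well plates and, one day later, dosed by pin tool. Treatments were either a single drug or a fixed dose of an anchor drug with five library-drug doses (not always all listed) in √10 steps. After 5 days, nuclei were stained in a one-step fixation (final 0.05% Triton X-100, 1% formaldehyde, 1 ug/ml Hoechst) and counted on 4× images, and relative viability is the treated-to-vehicle nuclei ratio, as the median of duplicate plates.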

[2] = compound: CC1(C)CNc2cc(NC(=O)c3cccnc3NCc3ccncc3)ccc21 [Motesanib] + Cc1nc(Nc2ncc(C(=O)Nc3c(C)cccc3Cl)s2)cc(N2CCN(CCO)CC2)n1 [Dasatinib] (partner 0.075 µM)
Method in brief: as §1

[3] = compound: C[C@@]1(C(=O)Nc2ccc(F)nc2)CCCN1c1nc(Nc2cc(C3CC3)n[nH]2)c2cccn2n1 + C[C@@H](Oc1cc(-c2cnn(C3CCNCC3)c2)cnc1N)c1c(Cl)ccc(F)c1Cl [Crizotinib] (partner 1 µM)
Method in brief: as §1

[4] = compound: C[C@@]1(C(=O)Nc2ccc(F)nc2)CCCN1c1nc(Nc2cc(C3CC3)n[nH]2)c2cccn2n1 + O=C(c1cc(Cc2n[nH]c(=O)c3ccccc23)ccc1F)N1CCN(C(=O)C2CC2)CC1 [Olaparib] (partner 8 µM)
Method in brief: as §1

Cell Line	relative viability ([1]; first compound 0.01 µM)	relative viability ([1]; first compound 0.03162 µM)	relative viability ([1]; first compound 0.1 µM)	relative viability ([1]; first compound 0.3162 µM)	relative viability ([1]; first compound 1 µM)	relative viability ([2]; first compound 0.01 µM)	relative viability ([2]; first compound 0.03162 µM)	relative viability ([2]; first compound 0.1 µM)	relative viability ([2]; first compound 0.3162 µM)	relative viability ([2]; first compound 1 µM)	relative viability ([3]; first compound 0.04 µM)	relative viability ([3]; first compound 0.1265 µM)	relative viability ([3]; first compound 0.4 µM)	relative viability ([3]; first compound 1.265 µM)	relative viability ([4]; first compound 0.04 µM)	relative viability ([4]; first compound 0.1265 µM)	relative viability ([4]; first compound 0.4 µM)	relative viability ([4]; first compound 1.265 µM)
201T	1.01	1.04	1.08	1.04	0.903	0.575	0.519	0.559	0.595	0.535	0.993	0.943	0.933	0.973	0.755	0.725	0.729	0.9
A549	0.965	0.975	0.989	1.09	0.955	–	–	–	–	–	0.52	0.402	0.248	0.089	0.293	0.17	0.148	0.244
A-427	0.668	1.02	0.896	1.1	1.02	0.606	0.724	0.663	0.721	0.81	0.853	0.848	0.674	0.882	0.666	0.663	0.603	0.529
ABC-1	1.12	0.945	1.01	1.27	1.17	0.518	0.544	0.605	0.65	0.619	1.01	0.695	0.7	0.272	0.664	0.584	0.774	0.668
BEN	0.591	0.715	0.723	0.714	0.789	0.286	0.342	0.333	0.325	0.343	0.773	1.19	0.59	0.999	1.09	1.14	0.97	0.988
CAL-12T	–	–	0.67	0.649	0.65	0.414	0.339	0.479	0.522	0.546	0.509	0.487	0.346	0.161	0.729	0.751	0.583	0.449
COR-L23	0.931	0.929	1.01	0.996	1.08	0.561	0.59	0.515	0.499	0.451	0.737	0.653	0.494	0.333	0.315	0.367	0.234	0.188
COR-L 105	0.368	0.408	0.327	0.355	0.347	0.407	0.243	0.308	0.401	0.394	0.805	0.454	0.5	0.456	0.74	0.604	0.571	0.595
Calu-6	1.06	1.05	1.02	0.997	0.999	–	–	–	–	–	0.881	0.743	0.597	0.491	0.612	0.644	0.543	0.384
ChaGo-K-1	–	–	–	–	–	0.55	0.535	0.544	0.696	0.691	0.989	0.644	1.01	0.791	0.414	0.398	0.402	0.422
EBC-1	0.268	0.206	0.223	0.211	0.223	–	–	–	–	–	0.195	0.168	0.211	0.2	0.695	0.666	0.61	0.391
EKVX	0.201	0.21	0.225	0.204	0.246	0.592	0.462	0.527	0.654	0.505	0.929	0.862	0.612	0.679	0.874	0.644	0.635	0.735
EMC-BAC-2	0.884	0.881	0.847	0.926	0.875	0.292	0.34	0.342	0.339	0.303	0.675	0.697	0.66	0.816	0.406	0.368	0.312	0.334
EPLC-272H	1	0.943	0.847	0.925	0.898	0.344	0.405	–	0.421	0.287	0.977	0.857	0.676	1.16	0.792	0.513	0.489	0.571
H3255	0.228	0.276	0.224	0.268	0.254	0.304	0.38	0.473	0.302	0.338	0.865	0.979	0.793	0.924	0.638	0.643	0.523	0.548
HARA	0.698	0.668	0.77	0.742	0.804	0.225	0.2	0.215	0.303	0.3	1.02	0.995	1.21	1.1	0.81	0.74	0.59	0.656
HCC-15	0.849	0.874	0.723	0.947	0.886	0.648	0.53	0.648	0.758	0.723	0.749	0.63	0.66	0.714	0.663	0.614	0.611	0.635
HCC-44	0.989	0.952	1.02	1.04	1.03	–	–	–	–	–	0.732	0.696	0.513	0.597	0.94	0.879	0.867	0.911
HCC-78	0.662	0.785	0.63	0.913	0.916	0.342	0.406	0.291	0.391	0.437	0.31	0.212	0.216	0.307	0.661	1.12	0.375	0.427
